This is an account of results in US8084621B2, “3-Pyrrolo[b]cyclohexylene-2-dihydroindolinone derivatives and uses thereof” (Jiangsu Simcere Pharmaceutical R&D Co. Ltd., priority 2006, dated 2011).

The test system of experiment [1] is Human Ovarian Cancer Cell Line (SK-OV-3). Put plainly: Tumor cell proliferation assay (MTT), SK-OV-3. The following applies: for inhibition at 10 µM: concentration of 10^−5 mol/L, preliminary screening, 72 hours, read-out: Inhibition rate % SK-OV-3; for IC50: secondary screening, 48 hours. Type of experiment: cell-based. From the text:
(§1) The assay used generally is the blue tetrazolium bromide (MTT) method. […] The amount of formazan can be detected by the microplate reader through the absorption value at 570 nm. The amount of formazan product generated is proportional to the number of living cells in the sample, so the OD value may reflect the number of living cells and the ability of a test drug to inhibit or kill cells. The MTT assay may be used in determining the ability of different compounds of the present invention to inhibit one or more cancer cells proliferation. Similar assays can be designed along the same lines for any cancer cell using techniques well known in the art.
(§2) The assay used generally is the blue tetrazolium bromide (MTT) method. […] Intracellular purple formazan salt crystals can be solved in DMSO and the absorption value at 570 nm is detected by the microplate reader, then the number of living cells can be detected indirectly. So MTT assay may be used to determine the ability of a compound of the present invention to inhibit cell proliferation. Similar assays can be designed along the same lines for any cancer cell using techniques well known in the art.
2.2.13 Human Ovarian Cancer Cell Line (SK-OV-3).
The cells of 2.2.11, 2.2.12, 2.2.13 were cultured in MC COYS 5-A medium containing 12% fetal bovine serum in the condition of 37° C., 5% CO2.
(§3) 2.3.1 Cell seeding: Trypsinize the cell by 0.05% trypsin-EDTA and add RPMI 1640 medium (DMEM or 5A) containing 12% calf serum. Count the number, then dilute to 1.67×10^4/ml. Add 180 ul/well to the 96 well plate (3000 cells/well).
(§4) 2.3.2 Culture: cells are incubated for 24 hours at 37° C. under 5% CO2.
(§5) 2.3.3 Preliminary screening: The compounds are firstly diluted to 0.1 mol/L with DMSO, and then diluted to three concentrations of 10^−5 mol/L, 10^−6 mol/L and 10^−7 mol/L. Add 20 ul test compounds to the 96 well plate and incubate for 72 hours. Each group has three parallel wells and all experiments repeat three times. Each inhibition ratio is calculated, then an average value of three times is taken as the measured value. 2.3.4 Staining 2.3.4.1 Attached cell: add 20 ul/well MTT to the 96-well plates; incubate for 4 hours in the incubator. Pour out the culture medium in the well and add 100 ul/well DMSO. Shake the plate for 5 min. 2.3.4.2 Suspension cell: add 20 ul/well MTT to the 96-well plates; incubate for 4 hours in the incubator. Add 50 ul/well 20% SDS and incubate for overnight in the incubator. 2.3.5 Reading the plates: read the absorbance A570-A630 with the Infinite M200 microtiter plate reader. Calculate the inhibition ratio of the test compounds. 2.3.6 Secondary screening: the compounds whose inhibition ratio is greater than 50% at the concentrations of 10^−5 mol/L in the preliminary screening will be picked out for Secondary screening. Dilute these compounds to ten concentrations: 10^−5 mol/L, 0.5×10^−5 mol/L, 10^−6 mol/L, 0.8×10^−6 mol/L, 0.6×10^−6 mol/L, 0.4×10^−6 mol/L, 0.2×10^−6 mol/L, 10^−7 mol/L, 0.8×10^−7 mol/L and 0.4×10^−7 mol/L. Add 20 ul test compound solution to the 96 well plate and incubate for 48 hours. Each group has three parallel wells and all experiments repeat for three times. Read the plates and calculate the inhibition ratio according to the preliminary screening method. 2.3.7 Calculate the Inhibition Ratio of Cell Proliferation and the IC50
(§6) According to the inhibition ratio of cell proliferation at the different concentrations of the compound, inhibition ratio of 50% of the test compound is calculated through the logarithm of the concentration of the compound with the Logit [I] linear regression, and an average value of three times is taken as the measured value of a sample.

Experiment [2] deals with Human Small Cell Lung Cancer Cell Line (NCI-H446). The experiment can be described thus: Tumor cell proliferation assay (MTT), NCI-H446. Type of experiment: cell-based. The following applies: for inhibition at 10 µM: concentration of 10^−5 mol/L, preliminary screening, 72 hours, read-out: Inhibition rate % NCI-H446; for IC50: secondary screening, 48 hours.
Source text: as §1, §2
2.2.5 Human Small Cell Lung Cancer Cell Line (NCI-H446)
The cells of the 2.2.1, 2.2.2, 2.2.3, 2.2.4, 2.2.5 cultured with RPMI 1640 containing 12% calf serum in the condition of 37° C., 5% CO2.
as §3, §4, §5, §6

Usually inhibition stands for the relative decrease from the control value, in per cent. As for `CCN(CC)CCNC(=O)c1c(C)[nH]c2c1CCC/C2=C1/C(=O)Nc2ccc(F)cc21` [I-2, N-(2-(diethylamino)ethyl)-2-methyl-7-[1,2-dihydro-5-fluoro-2-oxo-3H-indol-(Z)-3-ylidene]-4,5,6,7-tetrahydro-1H-indole-3-carboxamide], the inhibition at 10 µM in experiment [1] was found to be 92.2%.
As usually defined, the IC50 is the concentration that inhibits the measured activity by half. Regarding `CCN(CC)CCNC(=O)c1c(C)[nH]c2c1CCC/C2=C1/C(=O)Nc2ccc(Cl)cc21` [I-3, N-(2-(diethylamino)ethyl)-2-methyl-7-[1,2-dihydro-5-chloro-2-oxo-3H-indol-(Z)-3-ylidene]-4,5,6,7-tetrahydro-1H-indole-3-carboxamide], in experiment [2], the inhibition at 10 µM turned out to be 69.9% and inhibition was half-maximal at 6.47 µM (IC50). Moreover, in experiment [1], the inhibition at 10 µM stood at 86.7% and inhibition was half-maximal at 2.99 µM (IC50).
For `CCN(CC)CCNC(=O)c1c(C)[nH]c2c1CCC/C2=C1/C(=O)Nc2ccc(C)cc21` [I-4, N-(2-(diethylamino)ethyl)-2-methyl-7-[1,2-dihydro-5-methyl-2-oxo-3H-indol-(Z)-3-ylidene]-4,5,6,7-tetrahydro-1H-indole-3-carboxamide], in that order: 57.7%, 5.17 µM, 57.1% and 5.27 µM.
As to `CCN(CC)CCNC(=O)c1c(C)[nH]c2c1CCC/C2=C1/C(=O)Nc2ccccc21` [I-5, N-(2-(diethylamino)ethyl)-2-methyl-7-[1,2-dihydro-2-oxo-3H-indol-(Z)-3-ylidene]-4,5,6,7-tetrahydro-1H-indole-3-carboxamide], the inhibition at 10 µM in experiment [1] worked out at 77.5%.
For `Cc1[nH]c2c(c1C(=O)NCCN(C)C)CCC/C2=C1/C(=O)Nc2ccc(F)cc21` [I-6, N-(2-(dimethylamino)ethyl)-2-methyl-7-[1,2-dihydro-5-fluoro-2-oxo-3H-indol-(Z)-3-ylidene]-4,5,6,7-tetrahydro-1H-indole-3-carboxamide], the values for the inhibition at 10 µM in experiment [2] and in experiment [1] were 27.1% and 32.2%, respectively.
`Cc1[nH]c2c(c1C(=O)NCCCN(C)C)CCC/C2=C1/C(=O)Nc2ccc(Cl)cc21` [I-7, N-(3-(dimethylamino)propyl)-2-methyl-7-[1,2-dihydro-5-chloro-2-oxo-3H-indol-(Z)-3-ylidene]-4,5,6,7-tetrahydro-1H-indole-3-carboxamide]: the inhibition at 10 µM in experiment [2] was 62.7%; in experiment [1], 63.3%. The half-maximal inhibitory concentration (IC50) was 5.99 µM in experiment [2] and 3.04 µM in experiment [1].
For the compound `Cc1[nH]c2c(c1C(=O)NCCO)CCC/C2=C1/C(=O)Nc2ccccc21` [I-8, N-(2-hydroxyethyl)-2-methyl-7-[1,2-dihydro-2-oxo-3H-indol-(Z)-3-ylidene]-4,5,6,7-tetrahydro-1H-indole-3-carboxamide], the inhibition at 10 µM in experiment [1] was 38.1%.
`CCN(CC)CC(O)CNC(=O)c1c(C)[nH]c2c1CCC/C2=C1/C(=O)Nc2ccccc21` (stereo not shown) [I-63, N-(3-(diethylamino)-2-hydroxypropyl)-2-methyl-7-[1,2-dihydro-2-oxo-3H-indol-(Z)-3-ylidene]-4,5,6,7-tetrahydro-1H-indole-3-carboxamide]: in experiment [2], the inhibition at 10 µM worked out at 79% and inhibition was half-maximal at 2.27 µM (IC50). Also, in experiment [1], the inhibition at 10 µM was 94% and the IC50 came out at 1.35 µM.
For the compound `Cc1[nH]c2c(c1C(=O)NCC(O)CN1CCOCC1)CCC/C2=C1/C(=O)Nc2ccc(F)cc21` (stereo not shown) [I-68, N-(2-hydroxy-3-morpholinopropyl)-2-methyl-7-[1,2-dihydro-5-fluoro-2-oxo-3H-indol-(Z)-3-ylidene]-4,5,6,7-tetrahydro-1H-indole-3-carboxamide], the inhibition at 10 µM in experiment [2] turned out to be 29.1%; in experiment [1] it was 11.1%.
Consider `Cc1[nH]c2c(c1C(=O)NCC(O)CN1CCCC1)CCC/C2=C1/C(=O)Nc2ccccc21` (stereo not shown) [I-70, N-(2-hydroxy-3-(pyrrolidin-1-yl)propyl)-2-methyl-7-[1,2-dihydro-2-oxo-3H-indol-(Z)-3-ylidene]-4,5,6,7-tetrahydro-1H-indole-3-carboxamide], for which, in experiment [2], the inhibition at 10 µM came out at 87% and the IC50 turned out to be 2.64 µM. In addition, in experiment [1], the inhibition at 10 µM is 95.6% and the IC50 came out at 1.14 µM.
Regarding `Cc1[nH]c2c(c1C(=O)NCC(O)CN1CCCC1)CCC/C2=C1/C(=O)Nc2ccc(F)cc21` (stereo not shown) [I-71, N-(2-hydroxy-3-(pyrrolidin-1-yl)propyl)-2-methyl-7-[1,2-dihydro-5-fluoro-2-oxo-3H-indol-(Z)-3-ylidene]-4,5,6,7-tetrahydro-1H-indole-3-carboxamide], the inhibition at 10 µM in experiment [2] was 87.5%; in experiment [1], 91.7%. Moreover, the IC50 in experiment [2] amounted to 2.52 µM; in experiment [1], 1.54 µM.
Turning to `Cc1[nH]c2c(c1C(=O)NCC(O)CN1CCCCC1)CCC/C2=C1/C(=O)Nc2ccccc21` (stereo not shown) [I-73, N-(2-hydroxy-3-(piperidin-1-yl)propyl)-2-methyl-7-[1,2-dihydro-2-oxo-3H-indol-(Z)-3-ylidene]-4,5,6,7-tetrahydro-1H-indole-3-carboxamide], the inhibition at 10 µM in experiment [1] came out at 71.9%.
`Cc1[nH]c2c(c1C(=O)NCC(O)CN1CCCCC1)CCC/C2=C1/C(=O)Nc2ccc(F)cc21` (stereo not shown) [I-74, N-(2-hydroxy-3-(piperidin-1-yl)propyl)-2-methyl-7-[1,2-dihydro-5-fluoro-2-oxo-3H-indol-(Z)-3-ylidene]-4,5,6,7-tetrahydro-1H-indole-3-carboxamide]: the inhibition at 10 µM in experiment [1] was 88.2%.
Take `Cc1[nH]c2c(c1C(=O)NCC(O)CN1CCN(C)CC1)CCC/C2=C1/C(=O)Nc2ccc(F)cc21` (stereo not shown) [I-77, N-[2-hydroxy-3-(4-methylpiperazin-1-yl)propyl]-2-methyl-7-[1,2-dihydro-5-fluoro-2-oxo-3H-indol-(Z)-3-ylidene]-4,5,6,7-tetrahydro-1H-indole-3-carboxamide]: in experiment [2], the inhibition at 10 µM was 57.2% and it took 8.15 µM to reach half-maximal inhibition (IC50). Also, in experiment [1], the inhibition at 10 µM amounted to 77.3% and the concentration for half-maximal inhibition (IC50) was determined as 6.4 µM.
